Measured values: patent US20250221966A1, “RXFP1 AGONISTS” (BRISTOL-MYERS SQUIBB COMPANY, priority 2021, published 2025)
Read-outs that look alike come from different tables or passages of the source.

Target: T1, human RXFP1 (Homo sapiens, UniProt Q9HBX9)
T1 construct: expressed in transfected cells
T1 sequence (Q9HBX9 1-757): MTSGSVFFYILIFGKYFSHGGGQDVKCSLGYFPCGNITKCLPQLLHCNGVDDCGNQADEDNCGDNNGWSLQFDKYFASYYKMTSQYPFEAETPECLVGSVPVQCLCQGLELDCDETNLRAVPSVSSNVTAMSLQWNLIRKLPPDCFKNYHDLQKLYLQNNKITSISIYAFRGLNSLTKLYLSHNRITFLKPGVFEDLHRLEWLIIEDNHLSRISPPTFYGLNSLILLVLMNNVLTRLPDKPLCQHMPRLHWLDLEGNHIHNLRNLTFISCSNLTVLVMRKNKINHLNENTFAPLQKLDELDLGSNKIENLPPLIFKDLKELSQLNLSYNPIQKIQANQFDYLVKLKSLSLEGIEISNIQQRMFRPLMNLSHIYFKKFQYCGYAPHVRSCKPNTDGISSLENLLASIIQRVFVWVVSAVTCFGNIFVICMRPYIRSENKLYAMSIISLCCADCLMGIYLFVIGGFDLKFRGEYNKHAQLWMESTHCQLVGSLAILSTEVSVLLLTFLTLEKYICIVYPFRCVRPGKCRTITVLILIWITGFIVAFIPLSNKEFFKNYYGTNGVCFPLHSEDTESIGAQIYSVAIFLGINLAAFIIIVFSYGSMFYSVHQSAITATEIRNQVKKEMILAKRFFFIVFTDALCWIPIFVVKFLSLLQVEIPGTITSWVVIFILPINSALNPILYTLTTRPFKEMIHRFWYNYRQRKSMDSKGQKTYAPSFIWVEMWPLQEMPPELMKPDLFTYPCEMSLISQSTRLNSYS
Assay: RXFP1 cAMP assay (hRXFP1 HEK293 cAMP assay, HTRF)
Type: cell-based
Summary of the method: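 In a stable human RXFP1 HEK293 line, compounds acted for 30 min at RT in buffer with 0.5 mM IBMX. HTRF then quantified cellular cAMP.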

[1] = HEK293 cells stably expressing human RXFP1, 30 min at room temperature, read-out: cAMP hRXFP1 HEK293 Assay EC50

Row | Structure (SMILES) | EC50 [1] | EC50 (cAMP hRXFP1 HEK293 Assay EC50, HEK293 cells stably expressing human RXFP1, 30 min at room temperature)
1 | COc1ccc(C2=NOC3CC(CO)CC23)cc1C(=O)N[C@H]1[C@@H](C(=O)NC2(C)CCCC2)[C@H]2CC[C@@H]1/C2=C\C1CC1 (stereo partly drawn) [compound 466] | 3.9 nM | –
2 | COc1cc(F)c(F)cc1C(=O)N[C@@H]1C2CCC(/C2=C/c2c(Cl)cccc2Cl)[C@@H]1C(=O)Nc1ccc(F)c(C(F)(F)F)c1 (stereo partly drawn) [compound 69] | – | 3700 nM
3 | COc1ccc(C2=NOC3COCC23)cc1C(=O)N[C@H]1[C@@H](C(=O)NCc2ccnn2C)[C@H]2CC[C@@H]1/C2=C\C1CC1 (stereo partly drawn) [compound 707] | 1330 nM | –
4 | COc1ccc(C2=NOC3CC(NC(=O)CO)CC23)cc1C(=O)N[C@@H]1C2CCC(/C2=C/C2CC2)[C@@H]1C(=O)Nc1ccc(F)c(C(F)(F)F)c1 (stereo partly drawn) [compound 743] | 5 nM | –
5 | COc1ccc(C2=NOC3CC(CO)CC23)cc1C(=O)N[C@H]1[C@@H](C(=O)N[C@H](C)C2(C)CC2)[C@H]2CC[C@@H]1/C2=C\C1CC1 (stereo partly drawn) [compound 766] | 2.7 nM | –
6 | COc1ccc(C2=NOC(C)(CO)C2)cc1C(=O)N[C@H]1[C@@H](C(=O)Nc2ccc(F)c(C(F)(F)F)c2)[C@H]2CC[C@@H]1C2=CC1CC1 (single isomer, unassigned) [compound 571] | 65.3 nM | –
7 | COc1ccc(-c2cc(C(CO)NC(C)=O)ccc2F)cc1C(=O)N[C@@H]1C2CCC(/C2=C/C2CC2)[C@@H]1C(=O)Nc1ccc(F)c(C(F)(F)F)c1 (stereo partly drawn) [Example 172] | 5 nM | –
8 | COc1ccc(-c2cc(C3=NOC4CC(CO)CC34)ccc2F)cc1C(=O)N[C@H]1[C@@H](C(=O)Nc2ccc(F)c(C(F)(F)F)c2)[C@H]2CC[C@@H]1/C2=C\C1CC1 (stereo partly drawn) [compound 953] | 7 nM | –
9 | COc1ccc(C2=NO[C@@H]3CC[C@@H](O)[C@H]23)cc1C(=O)N[C@H]1[C@@H](C(=O)Nc2ccc(F)c(C(F)(F)F)c2)[C@H]2CC[C@@H]1/C2=C\C1CC1 (single isomer, unassigned) [compound 655] | 303 nM | –
10 | COc1ccc(-c2cc([C@H](OC(=O)NC3CCC3)C(F)(F)F)ccc2F)cc1C(=O)N[C@H]1[C@@H](C(=O)Nc2ccc(F)c(C(F)(F)F)c2)[C@H]2CC[C@@H]1/C2=C\C[C@@H](O)C(F)(F)F [compound 932] | 3.9 nM | –
11 | COc1ccc(-c2cc(C(OC(=O)Nc3ccccc3F)C(F)(F)F)ccc2F)cc1C(=O)N[C@@H]1C2CCC(/C2=C/C2CC2)[C@@H]1C(=O)Nc1ccc(F)c(C(F)(F)F)c1 (stereo partly drawn) [compound 223] | 2 nM | –
12 | Cc1ccc(C2=NOC3COCC23)cc1C(=O)N[C@H]1[C@@H](C(=O)Nc2ccc(F)c(C(F)(F)F)c2)[C@H]2CC[C@@H]1/C2=C\C1CC1 (single isomer, unassigned) [compound 654] | 300 nM | –
13 | COc1ccc(-c2cc(C(NC(=O)COc3ccccc3)C(=O)O)ccc2F)cc1C(=O)N[C@@H]1C2CCC(/C2=C/C(F)(F)F)[C@@H]1C(=O)Nc1ccc(F)c(C(F)(F)F)c1 (stereo partly drawn) [compound 244] | 7 nM | –
14 | COc1ccc(C2=NOC3COCC23)cc1C(=O)N[C@H]1[C@@H](C(=O)NC(C)(C)C#N)[C@H]2CC[C@@H]1/C2=C\C1CC1 (stereo partly drawn) [compound 633] | 190 nM | –
15 | COc1ccc(C2=NOC3COCC23)cc1C(=O)N[C@H]1[C@@H](C(=O)N[C@H](C)C2(C)CCC2)[C@H]2CC[C@@H]1/C2=C\C1CC1 (stereo partly drawn) [compound 769] | 3.3 nM | –
16 | COc1c(I)cc(I)cc1C(=O)N[C@@H]1C2CCC(/C2=C/c2ccccc2)[C@@H]1C(=O)Nc1ccc(F)c(C(F)(F)F)c1 (stereo partly drawn) [compound 132] | 220 nM | –
17 | COc1ccc(C2=NO[C@H]3C[C@H](CO)CN23)cc1C(=O)N[C@H]1[C@@H](C(=O)Nc2ccc(F)c(C(F)(F)F)c2)[C@H]2CC[C@@H]1/C2=C\CCC(F)(F)F [compound 818] | 2.2 nM | –
18 | COc1ccc(C2=NOC(CC(=O)O)C2)cc1C(=O)N[C@@H]1C2CCC(/C2=C/C2CC2)[C@@H]1C(=O)Nc1ccc(F)c(C(F)(F)F)c1 (single isomer, unassigned) [Example 390] | 37 nM | –
19 | COc1cc(C)c(C2=NOC3CC(CO)CC23)cc1C(=O)N[C@H]1[C@@H](C(=O)Nc2ccc(F)c(C(F)(F)F)c2)[C@H]2CC[C@@H]1/C2=C\C1CC1 (stereo partly drawn) [compound 738] | 3.3 nM | –
20 | COc1ccc(-c2cc(C(OC(=O)NC(C)(C)C)C(F)(F)F)ccc2F)cc1C(=O)N[C@@H]1C2CCC(/C2=C/C2CC2)[C@@H]1C(=O)Nc1ccc(F)c(C(F)(F)F)c1 (stereo partly drawn) [compound 210] | 1 nM | –
21 | O=C(N[C@H]1[C@@H](C(=O)Nc2ccc(F)c(C(F)(F)F)c2)[C@H]2CC[C@@H]1/C2=C\C1CC1)c1ccc(F)c(C2=NOC3COCC23)c1 (stereo partly drawn) [compound 714] | 1750 nM | –

Row | Structure (SMILES) | EC50 [1] | EC50 (cAMP hRXFP1 HEK293 Assay EC50, HEK293 cells stably expressing human RXFP1, 30 min at room temperature)
22 | CC[C@H](NC(=O)[C@@H]1[C@H](NC(=O)c2cc(C3=NOC4COCC34)ccc2OC)[C@@H]2CC[C@H]1/C2=C/C1CC1)C1CCC1 (stereo partly drawn) [compound 676] | 486 nM | –
23 | COc1ccc(F)cc1C(=O)N[C@@H]1C2CCC(C2=C(C)C)[C@@H]1C(=O)Nc1ccc(F)c(C(F)(F)F)c1 (stereo partly drawn) [compound 111] | 860 nM | –
24 | COc1ccc(-c2cc(C(OC(=O)Nc3ccccc3)C(=O)O)ccc2F)cc1C(=O)N[C@H]1[C@@H](C(=O)Nc2ccc(F)c(C(F)(F)F)c2)[C@H]2CC[C@@H]1/C2=C\C1CC1 (stereo partly drawn) [compound 965] | 4.8 nM | –
25 | COc1ccc(-c2cc(C(OC(=O)NC3CCC3)C(F)F)ccc2F)cc1C(=O)N[C@@H]1C2CCC(/C2=C/C2CC2)[C@@H]1C(=O)Nc1ccc(F)c(C(F)(F)F)c1 (stereo partly drawn) [compound 231] | 1 nM | –
26 | COc1ccc(-c2ccnc(N3CCOCC3)c2F)cc1C(=O)N[C@H]1[C@@H](C(=O)Nc2ccc(F)c(C(F)(F)F)c2)[C@H]2CC[C@@H]1C2=C(C)C [compound 85] | 130 nM | –
27 | CNC(=O)OC(c1ccc(F)c(-c2ccc(OC)c(C(=O)N[C@@H]3C4CCC(/C4=C/C4CC4)[C@@H]3C(=O)Nc3ccc(F)c(C(F)(F)F)c3)c2)c1)C(F)(F)F (stereo partly drawn) [compound 212] | 1 nM | –
28 | COCCOc1ccc(-c2cc(C(=O)O)ccc2F)cc1C(=O)N[C@@H]1C2CCC(/C2=C/C2CC2)[C@@H]1C(=O)Nc1ccc(F)c(C(F)(F)F)c1 (stereo partly drawn) [compound 200] | 37 nM | –
29 | COc1ccc(-c2cccc3c2ccn3C(=O)OC(C)(C)C)cc1C(=O)N[C@H]1[C@@H](C(=O)Nc2ccc(F)c(C(F)(F)F)c2)[C@H]2CC[C@@H]1/C2=C\C1CC1 [compound 880] | 1.6 nM | –
30 | COc1ccc(-c2cc(C(C)OC(=O)Nc3ccc(F)cc3)ccc2F)cc1C(=O)N[C@@H]1C2CCC(/C2=C/C2CC2)[C@@H]1C(=O)Nc1ccc(F)c(C(F)(F)F)c1 (stereo partly drawn) [compound 226] | 3 nM | –
31 | COc1ccc(-c2cc(C(=O)O)ccc2F)cc1C(=O)N[C@@H]1C2CCC(/C2=C/c2ccccc2)[C@@H]1C(=O)Nc1cccc(S(=O)(=O)C(F)(F)F)c1 (stereo partly drawn) [compound 122] | 13 nM | –
32 | COc1ccc(C2=NO[C@H]3COC[C@@H]23)cc1C(=O)N[C@H]1[C@@H](C(=O)Nc2ccc(F)c(C(F)(F)F)c2)[C@H]2CC[C@@H]1/C2=C\CC1CCC1 [compound 829] | 3.4 nM | –
33 | CCOC(=O)Cn1cc(-c2ccc(OC)c(C(=O)N[C@@H]3C4CCC(/C4=C/c4ccccc4)[C@@H]3C(=O)Nc3ccc(F)c(C(F)(F)F)c3)c2)cn1 (stereo partly drawn) [compound 339] | 67 nM | –
34 | COc1cc(F)c(C2=NOC3COCC23)cc1C(=O)N[C@H]1[C@@H](C(=O)Nc2ccc(F)c(C(F)(F)F)c2)[C@H]2CC[C@@H]1/C2=C\C1CC1 (single isomer, unassigned) [compound 463] | 3.1 nM | –
35 | COc1ccc(C2=NOC3CC(C(O)C(F)(F)F)CC23)cc1C(=O)N[C@H]1[C@@H](C(=O)Nc2ccc(F)c(C(F)(F)F)c2)[C@H]2CC[C@@H]1/C2=C\C1CC1 (stereo partly drawn) [compound 856] | 4.7 nM | –
36 | CCC/C=C1\[C@H]2CC[C@@H]1[C@H](C(=O)Nc1ccc(F)c(C(F)(F)F)c1)[C@@H]2NC(=O)c1cc(C2=NOC3CC(CO)CC23)ccc1OC (stereo partly drawn) [compound 800] | 1 nM | –
37 | COc1ccc(C2=NOC3COCC23)cc1C(=O)N[C@H]1[C@@H](C(=O)NCC2CCC2)[C@H]2CC[C@@H]1/C2=C\C1CC1 (stereo partly drawn) [compound 597] | 102 nM | –
38 | COc1ccc(N2CC(CO)CC2=O)cc1C(=O)N[C@H]1[C@@H](C(=O)Nc2ccc(F)c(C(F)(F)F)c2)[C@H]2CC[C@@H]1/C2=C\C1CC1 (stereo partly drawn) [compound 526] | 22.4 nM | –
39 | COc1ccc(-c2cc(C(=O)O)ccc2F)cc1C(=O)N[C@@H]1C2CCC(/C2=C/c2cncnc2)[C@@H]1C(=O)Nc1ccc(F)c(C(F)(F)F)c1 (stereo partly drawn) [compound 129] | 60 nM | –
40 | COc1ccc(C2=NOC3(CO)CCC23CO)cc1C(=O)N[C@H]1[C@@H](C(=O)Nc2ccc(F)c(C(F)(F)F)c2)[C@H]2CC[C@@H]1/C2=C\C1CC1 (single isomer, unassigned) [compound 623] | 169 nM | –
41 | COc1ccc(-c2cc(C(NC(=O)C3CCOCC3)C(=O)O)ccc2F)cc1C(=O)N[C@H]1[C@@H](C(=O)Nc2ccc(F)c(C(F)(F)F)c2)[C@H]2CC[C@@H]1/C2=C\C1CC(F)(F)C1 (stereo partly drawn) [compound 943] | 1.7 nM | –
42 | CNC(=O)c1ccc(F)c(-c2ccc(OC)c(C(=O)N[C@@H]3C4CCC(/C4=C/C4CC4)[C@@H]3C(=O)Nc3ccc(F)c(C(F)(F)F)c3)c2)c1 (stereo partly drawn) [Example 166] | 11 nM | –
